Experiment [1] deals with cerebellar granule neurons (CGNs). As to the kind of experiment: MTT cell viability, glutamate-induced excitotoxicity in CGNs. The settings on record: LY294002 incubated with MN‐08. Format: cell-based, rat. As to the method:
Excessive glutamate‐induced excitotoxicity might cause dysfunctions of cellular pathways, subsequently resulting in synaptic dysfunctions and neuronal loss. To evaluate the neuroprotective effects of MN‐08 against excitotoxicity, cerebellar granule neurons (CGNs) were treated with MN‐08 at the concentrations from 1 to 50 µM or memantine from 1 to 10 μM for 2 h, and then exposed to 100 μM glutamate for 24 h. […] Similarly, in APP/PS1 mice, MN‐08 prevented neuronal loss in the hippocampus by upregulating the expression ratio of Bcl‐2/Bax and downregulating the expression ratio of cleaved Caspase‐3 to Caspase‐3 (Figure S6).
CGNs were prepared from the 8-day-old Sprague–Dawley rats as described in our previous publication (Li et al., 2005). Briefly, animals were anesthetized and sacrificed, and their cerebella were collected. […]
Neurotoxicity was assessed using the tetrazolium salt 3-(4,5-dimethylthiazol-2-yl)-2,5- diphenyltetrazolium bromide dye (MTT) assay as previous publication (Luo et al., 2010). […] Cell viability was evaluated by observing colorimetric changes using a CLARIOstar plus Microplate Reader (BMG Labtech, Ortenberg, Germany) at a test wavelength of 570 nm with 655 nm as a reference wavelength. Data were expressed as a percentage of control cultures.

For experiment [2], the system named is ERK and PI3K/Akt/GSK3β pathway. As to the kind of experiment: Western blotting of p-ERK, p-Akt, p-GSK3β and Bcl-2 in glutamate-challenged CGNs. Format: cell-based, rat. The settings on record: LY294002 incubated with MN‐08. The source says:
To further characterize the neuroprotection of MN‐08, the level of the key signaling molecules, such as ERK, Akt, and GSK3β, was examined by Western blotting assay. […] Moreover, pre‐treatment with MN‐08 reversed expression of both p‐Akt and p‐GSK3β with the challenge of glutamate. Akt is an important downstream member of PI3K. To further confirm whether the PI3K/Akt pathway was associated with the neuroprotection of MN‐08 against glutamate‐induced excitotoxicity, specific PI3K inhibitor LY294002 was applied and incubated with MN‐08. […] Taken together, MN‐08 might protect against glutamate‐induce cytotoxicity by reversing the dysregulations of ERK pathway and PI3K/Akt/GSK3β pathway.
Western blotting analysis was performed as previously described with minor modifications (Huang, Li, & Nan, 2017). Proteins were extracted from hippocampal tissue and their concentrations determined by the BCA protein assay kit (Fdbio science, Hangzhou, China). The protein (20 μg) was separated on a 12% SDS-PAGE gel and then transferred to PVDF membranes. The membranes were blocked using 5 % nonfat dry milk for 2 h. The protein blots were incubated with the corresponding primary antibodies against p-Akt (#4060, 1:1000, Cell Signaling Technology), Akt (#4685, 1:1000, Cell Signaling Technology), BACE1 (#5606, 1:1000, Cell Signaling Technology), PS1 (#5643, 1:1000, Cell Signaling Technology), p-GSK3β (#5558, 1:1000, Cell Signaling Technology), GSK3β (#12456, 1:1000, Cell Signaling Technology), Bcl-2 (#3498, 1:1000, Cell Signaling Technology), Bax (#5023, 1:1000, Cell Signaling Technology), Cleaved caspase-3 (#9661, 1:1000, Cell Signaling Technology), Caspase-3 (#9662, 1:1000, Cell Signaling Technology), ADAM10 (#14194, 1:1000, Cell Signaling Technology), APP (#ab241592, 1:1000, Abcam), sAPPα (#ab126723, 1:1000, Abcam), NEP (#ab216341, 1:1000, Abcam), Synapsin I (#ab64581, 1:1000, Abcam), Synapsin II (#ab76494, 1:1000, Abcam), NR2A (#ab124913, 1:2000, Abcam), PSD95 (#ab18258, 1:1000, Abcam), Synaptophysin (#ab32127, 1:1000, Abcam), IDE (#ab133561, 1:1000, Abcam), Drebin (#ab178408, 1:1000, Abcam) and Tau-5 (#ab80579, 1:2000, Abcam) overnight at 4°C. After washing 3 times, the membranes were incubated with the respective HRP-conjugated secondary antibody. ECL Western blotting Detection Reagents (Fdbio science, Hangzhou, China) were used to perform Chemiluminescence detection. Quantitative analysis of protein bands was conducted by the Carestream system (Carestream Health, Inc, USA).
CGNs were prepared from the 8-day-old Sprague–Dawley rats as described in our previous publication (Li et al., 2005). Briefly, animals were anesthetized and sacrificed, and their cerebella were collected. Then, the freshly collected cerebella were rinsed in cold Kreb’s buffer-BSA and digested with 0.025 % trypsin incubated in a 37°C for 15 min. The reaction was stopped, and the single cell suspension was obtained through pipetting up and down the sedimentary tissue. CGNs were seeded in basal modified Eagle’s medium (ThermoFisher Scientific, Waltham, MA, USA) supplemented with 10 % fetal bovine serum, 25 mM KCl, 2 mM glutamine and 100 units/mL penicillin/streptomycin at a density of 1.5×10^6 cells/mL. Cytosine arabinoside (10 μM) was added to inhibit the growth of non-neuronal cells at 24 h after seeding. All experiments were carried out after 8 days in vitro. […]
For orientation: In western blotting, separated proteins are transferred to a membrane and probed.

Experiment [3] relates to 3×Tg‐AD mice. As to the kind of experiment: Golgi staining of dendritic spines and Western blotting of synaptic markers in 3×Tg-AD mice. Format: in vivo. The settings on record: donepezil 1.3 mg/kg. The method, then:
Triple transgenic 3×Tg‐AD mice were acquired from Jackson Laboratory and fostered in the Shenzhen Center for Disease Control and Prevention (Shenzhen, China). Eight‐month‐old 3×Tg‐AD mice were categorized into six groups: (1) 3×Tg‐AD +Vehicle group; (2) 3×Tg‐AD +MN‐08 (3 mg/kg) group; (3) 3×Tg‐AD +MN‐08 (6 mg/kg) group; (4) 3×Tg‐AD +MN‐08 (12 mg/kg) group; (5) 3×Tg‐AD +Memantine (Mem, 5 mg/kg) group; (6) 3×Tg‐AD +Donepezil (Done, 1.3 mg/kg, once daily) group; (7) Eight‐month‐old B6129SF2/J mice as a control group. MN‐08 and memantine were given twice daily (Done, once daily) by gastric gavage for 4 months from 8 months of age.
Golgi staining was used to determine hippocampal dendritic spine density by a Rapid Golgi Stain Kit (FD Neurotechnologies, Columbia, MD, USA) according to the manufacturer’s instructions. The brain was removed after the behavioral tests and incubated with impregnation solution in the dark at room temperature for 1 week. Impregnation solution was replaced with solution A and stored in the dark for 3 days. Brain sections (100 μm thickness) were placed on gelatin-coated microscope slides and then immersed in ddH2O. Solution B, Solution C, 80 % ethanol and xylene were used for 10 min, sequentially. The dendritic spines of hippocampal neurons were analyzed and counted in a blinded manner from six sections per animal by light microscopy (Olympus, Tokyo, Japan).
Western blotting analysis was performed as previously described with minor modifications (Huang, Li, & Nan, 2017). Proteins were extracted from hippocampal tissue and their concentrations determined by the BCA protein assay kit (Fdbio science, Hangzhou, China). The protein (20 μg) was separated on a 12% SDS-PAGE gel and then transferred to PVDF membranes. The membranes were blocked using 5 % nonfat dry milk for 2 h. […] Quantitative analysis of protein bands was conducted by the Carestream system (Carestream Health, Inc, USA).

Molecules are shown by their SMILES. Entries after “also recorded” stand apart in the source; their conditions may differ.

Regarding `O=c1cc(N2CCOCC2)oc2c(-c3ccccc3)cccc12` [LY294002], the “effect of LY294002 on the neuroprotective effects of MN‐08 against glutamate (MTT)” value in experiment [1] was “canceled; also recorded: partially abolished”. For the same molecule, in experiment [2], the “effect of LY294002 on upregulation of p‐Akt and p‐GSK3β by MN‐08” value is listed as “significantly abolished”.

For the molecule `COc1cc2c(cc1OC)C(=O)C(CC1CCN(Cc3ccccc3)CC1)C2` (stereo not drawn) [donepezil, reference compound], in experiment [3], the “reduction of dendritic spines (hippocampus CA1, Golgi staining)” value is on record as “markedly reversed”.
